According to PMC9161374 (Science Translational Medicine, 2022):
“And” between values parts separate entries of the source, which are not always exact repeats. Equal entries are not always repeated. Where two headings read alike, the source gives them in different places.

What was measured:
SARS-CoV-2 (strain B.1) = experiment: SARS-CoV-2 infection in Ad5-hACE2 mice; format: in vivo, Ad5-hACE2 BALB/c mice
[1] = system: SARS-CoV-2 replicon system (pBAC-SARS-CoV-2-Replicon-Luc); experiment: microbe, parasite or virus in culture; format: cell-based; settings: Severe acute respiratory syndrome coronavirus 2, HEK-293T, 60 h
SARS-CoV-2 (B.1) = experiment: Anti-SARS-CoV-2 activity in Vero E6 cells (viral yield by qRT-PCR); format: cell-based
[2] = system: SARS-CoV-2 (Beta, B.1.351); experiment: microbe, parasite or virus in culture; format: cell-based; settings: for EC50: read-out: EC50 in Vero E6 cells, SARS-CoV-2 (Beta, B.1.351); for % Inhibition: beta
[3] = system: SARS-CoV-2 (Delta, B.1.617.2); experiment: microbe, parasite or virus in culture; format: cell-based; settings: for % Inhibition: delta
[4] = system: SARS-CoV-2 (B.1) in Huh7 cells; experiment: Anti-SARS-CoV-2 activity in Huh7 cells (viral yield by qRT-PCR); format: cell-based; settings: B.1, MOI 0.05, 48 h
[5] = CCK-8 cell viability assay; format: cell-based, African green monkey; settings: African green monkey; Vero E6 cells, 48 h, CCK8
Description: To investigate the effect of drugs on cell viability, Vero E6 cells were seeded in 96-well plates at a density of 20,000 cells per well and were treated with drugs at indicated concentrations (0, 0.01, 0.1, 1, 5, 10, 50, 75, 100, 200 μM) for 48 hours. Cell viability was tested by using Cell Counting Kit-8 (CCK-8, Bimake, B34302). The figures were plotted from cell viability percentage versus the drug concentrations using GraphPad Prism 6 software.
Fig. S4. Cytotoxicity assay of compounds in Vero E6 cells.
Vero E6 cells were plated in 96-well plates and treated with increasing concentrations
of each indicated compound, ranging from 0 to 200 μM, for 48 hours. Cell viability was
tested using Cell Counting Kit-8 (CCK-8). Data are presented as mean ± SD.

## CC(C)C(=O)OC[C@H]1O[C@@H](n2ccc(NO)nc2=O)[C@H](O)[C@@H]1O [EIDD-2801, molnupiravir, reference compound]
SARS-CoV-2 (strain B.1); 500 mg/kg orally once daily, 2 dpi, FFA, individual mice
  Lung viral titer, Log10 (FFU/g): 3.468 Log10 (FFU/g) and 2.623 Log10 (FFU/g) and 3.1 Log10 (FFU/g)
SARS-CoV-2 (strain B.1); ATV006 250 mg/kg, EIDD-2801 500 mg/kg, orally once daily
  viral load and pathological damage of the lung: reduce the viral load and pathological damage of the lung

## CCCC(=O)OC[C@H]1O[C@@](C#N)(c2ccc3c(N)ncnn23)[C@H](O)[C@@H]1O [ATV009]
[1]; read-out: EC50 (Confidence 95%), replicon
  EC50: 0.217 µM
[1]; read-out: EC90 (Confidence 95%), replicon
  EC90: 0.313 µM
SARS-CoV-2 (B.1); 1 μM, replicates, sheet Fig.S3
  % Inhibition: 55.195%
SARS-CoV-2 (B.1); 2 μM, replicates, sheet Fig.S3
  % Inhibition: 75.409%
SARS-CoV-2 (B.1); 5 μM, replicates, sheet Fig.S3
  % Inhibition: 88.59%
SARS-CoV-2 (B.1); 10 μM, replicates, sheet Fig.S3
  % Inhibition: 90.9393%
SARS-CoV-2 (B.1); B.1, 2 uM, Vero E6, replicates, 2 µM
  % Inhibition: 99.9224%
SARS-CoV-2 (B.1); B.1, 5 uM, Vero E6, replicates, 5 µM
  % Inhibition: 99.9224%
SARS-CoV-2 (B.1); B.1, 10 uM, Vero E6, replicates, 10 µM
  % Inhibition: 99.9809%
SARS-CoV-2 (B.1); B.1, 50 uM, Vero E6, replicates, 50 µM
  % Inhibition: 99.9896%
SARS-CoV-2 (B.1); Severe acute respiratory syndrome coronavirus 2, Vero C1008, 0.1 μM, replicates, sheet Fig.S3
  inhibition at 0.1 µM: 0%
SARS-CoV-2 (B.1); Severe acute respiratory syndrome coronavirus 2, Vero C1008, 0.5 μM, replicates, sheet Fig.S3
  inhibition at 0.5 µM: 0%
SARS-CoV-2 (B.1); Severe acute respiratory syndrome coronavirus 2, Vero C1008, 1 μM, replicates, sheet Fig.S3
  inhibition at 1 µM: 63.5%
SARS-CoV-2 (B.1); Severe acute respiratory syndrome coronavirus 2, Vero C1008, 2 μM, replicates, sheet Fig.S3
  inhibition at 2 µM: 75.7%
SARS-CoV-2 (B.1); Severe acute respiratory syndrome coronavirus 2, Vero C1008, 5 μM, replicates, sheet Fig.S3
  inhibition at 5 µM: 90.9%
SARS-CoV-2 (B.1); Severe acute respiratory syndrome coronavirus 2, Vero C1008, 10 μM, replicates, sheet Fig.S3
  inhibition at 10 µM: 93.2%
SARS-CoV-2 (B.1); Severe acute respiratory syndrome coronavirus 2, Vero C1008, B.1, 0.01 uM, Vero E6, replicates
  inhibition at 0.01 µM: 0%
SARS-CoV-2 (B.1); Severe acute respiratory syndrome coronavirus 2, Vero C1008, B.1, 0.1 uM, Vero E6, replicates
  inhibition at 0.1 µM: 0%
SARS-CoV-2 (B.1); Severe acute respiratory syndrome coronavirus 2, Vero C1008, B.1, 0.25 uM, Vero E6, replicates
  inhibition at 0.25 µM: 0%
SARS-CoV-2 (B.1); Severe acute respiratory syndrome coronavirus 2, Vero C1008, B.1, 0.5 uM, Vero E6, replicates
  inhibition at 0.5 µM: 0%
SARS-CoV-2 (B.1); Severe acute respiratory syndrome coronavirus 2, Vero C1008, B.1, 1 uM, Vero E6, replicates
  inhibition at 1 µM: 0%
SARS-CoV-2 (B.1); Severe acute respiratory syndrome coronavirus 2, Vero C1008, B.1, 2 uM, Vero E6, replicates
  inhibition at 2 µM: 99.8%
SARS-CoV-2 (B.1); Severe acute respiratory syndrome coronavirus 2, Vero C1008, B.1, 5 uM, Vero E6, replicates
  inhibition at 5 µM: 99.8%
SARS-CoV-2 (B.1); Severe acute respiratory syndrome coronavirus 2, Vero C1008, B.1, 10 uM, Vero E6, replicates
  inhibition at 10 µM: 99.9%
SARS-CoV-2 (B.1); Severe acute respiratory syndrome coronavirus 2, Vero C1008, B.1, 50 uM, Vero E6, replicates
  inhibition at 50 µM: 99.9%
SARS-CoV-2 (B.1); Severe acute respiratory syndrome coronavirus 2, Vero C1008, read-out: EC90 (Confidence 95%)
  EC90: 1.53 µM
SARS-CoV-2 (B.1); Severe acute respiratory syndrome coronavirus 2, Vero C1008, MOI 0.05, 48 h
  EC50: 1.33 µM
[2]; Severe acute respiratory syndrome coronavirus 2, Vero C1008, 48 h
  EC50: 1.38 µM
[2]; Severe acute respiratory syndrome coronavirus 2, Vero C1008, beta, 0.01 uM, Vero E6, replicates
  inhibition at 0.01 µM: 0%
[2]; Severe acute respiratory syndrome coronavirus 2, Vero C1008, beta, 0.1 uM, Vero E6, replicates
  inhibition at 0.1 µM: 0%
[2]; Severe acute respiratory syndrome coronavirus 2, Vero C1008, beta, 0.25 uM, Vero E6, replicates
  inhibition at 0.25 µM: 0%
[2]; Severe acute respiratory syndrome coronavirus 2, Vero C1008, beta, 0.5 uM, Vero E6, replicates
  inhibition at 0.5 µM: 0%
[2]; Severe acute respiratory syndrome coronavirus 2, Vero C1008, beta, 1 uM, Vero E6, replicates
  inhibition at 1 µM: 0%
[2]; Severe acute respiratory syndrome coronavirus 2, Vero C1008, beta, 2 uM, Vero E6, replicates
  inhibition at 2 µM: 97%
[2]; Severe acute respiratory syndrome coronavirus 2, Vero C1008, beta, 5 uM, Vero E6, replicates
  inhibition at 5 µM: 99.7%
[2]; Severe acute respiratory syndrome coronavirus 2, Vero C1008, beta, 10 uM, Vero E6, replicates
  inhibition at 10 µM: 99.9%
[2]; Severe acute respiratory syndrome coronavirus 2, Vero C1008, beta, 50 uM, Vero E6, replicates
  inhibition at 50 µM: 99.9%
[2]; Severe acute respiratory syndrome coronavirus 2, Vero C1008, read-out: EC90 (Confidence 95%), Vero-E6, Beta B.1.351
  EC90: 1.78 µM
[2]; 2 uM, Vero E6, replicates
  % Inhibition: 97.0202%
[2]; 5 uM, Vero E6, replicates
  % Inhibition: 99.5977%
[2]; 10 uM, Vero E6, replicates
  % Inhibition: 99.9341%
[2]; 50 uM, Vero E6, replicates
  % Inhibition: 99.9498%
[2]
  EC50: 1.48 µM
[3]; Severe acute respiratory syndrome coronavirus 2, Vero C1008, 48 h, read-out: EC50 in Vero E6 cells, SARS-CoV-2 (Delta, B.1.617.2)
  EC50: 0.492 µM
[3]; Severe acute respiratory syndrome coronavirus 2, Vero C1008, delta, 0.01 uM, Vero E6, replicates
  inhibition at 0.01 µM: 0%
[3]; Severe acute respiratory syndrome coronavirus 2, Vero C1008, delta, 0.1 uM, Vero E6, replicates
  inhibition at 0.1 µM: 0%
[3]; Severe acute respiratory syndrome coronavirus 2, Vero C1008, delta, 0.25 uM, Vero E6, replicates
  inhibition at 0.25 µM: 0%
[3]; Severe acute respiratory syndrome coronavirus 2, Vero C1008, delta, 0.5 uM, Vero E6, replicates
  inhibition at 0.5 µM: 57.8%
[3]; Severe acute respiratory syndrome coronavirus 2, Vero C1008, delta, 1 uM, Vero E6, replicates
  inhibition at 1 µM: 94%
[3]; Severe acute respiratory syndrome coronavirus 2, Vero C1008, delta, 2 uM, Vero E6, replicates
  inhibition at 2 µM: 95.8%
[3]; Severe acute respiratory syndrome coronavirus 2, Vero C1008, delta, 5 uM, Vero E6, replicates
  inhibition at 5 µM: 91.8%
[3]; Severe acute respiratory syndrome coronavirus 2, Vero C1008, delta, 10 uM, Vero E6, replicates
  inhibition at 10 µM: 99.7%
[3]; Severe acute respiratory syndrome coronavirus 2, Vero C1008, delta, 50 uM, Vero E6, replicates
  inhibition at 50 µM: 99.9%
[3]; Severe acute respiratory syndrome coronavirus 2, Vero C1008, read-out: EC90 (Confidence 95%), Vero-E6, Delta B.1.617.2
  EC90: 0.678 µM
[3]; 0.5 uM, Vero E6, replicates
  % Inhibition: 47.7229%
[3]; 1 uM, Vero E6, replicates
  % Inhibition: 93.0132%
[3]; 2 uM, Vero E6, replicates
  % Inhibition: 93.5943%
[3]; 5 uM, Vero E6, replicates
  % Inhibition: 86.9079%
[3]; 10 uM, Vero E6, replicates
  % Inhibition: 98.6486%
[3]; 50 uM, Vero E6, replicates
  % Inhibition: 99.5907%
[4]; Severe acute respiratory syndrome coronavirus 2, Huh-7, read-out: EC50 (Confidence 95%) in Huh7 cells
  EC50: 1.03 µM
[4]; Severe acute respiratory syndrome coronavirus 2, Huh-7, read-out: EC90 (Confidence 95%) in Huh7 cells
  EC90: 1.31 µM
[5]
  CC50 at 48 h: > 50 µM
